Test results from PubChem BioAssay (NCI).
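Each compound was tested at five concentrations against cells in 96-well plates for 48 hours. GI50 is the concentration that inhibits growth by half. TGI: total growth inhibition.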

Experiments:
Experiment in all cases: growth of human tumour cells (NCI), 48 h
CAKI-1 renal = system: CAKI-1 renal
UACC-257 melanoma = system: UACC-257 melanoma
A549 NSCLC = system: A549 NSCLC
MDA-MB-435 = system: MDA-MB-435
EKVX NSCLC = system: EKVX NSCLC
HT29 colon = system: HT29 colon
A498 renal = system: A498 renal
MCF7 breast = system: MCF7 breast
OVCAR-8 ovarian = system: OVCAR-8 ovarian
MALME-3M melanoma = system: MALME-3M melanoma
DU-145 prostate = system: DU-145 prostate
SW-620 colon = system: SW-620 colon
HS 578T breast = system: HS 578T breast
SNB-75 CNS = system: SNB-75 CNS
SF-295 CNS = system: SF-295 CNS
PC-3 prostate = system: PC-3 prostate
OVCAR-4 ovarian = system: OVCAR-4 ovarian
UACC-62 melanoma = system: UACC-62 melanoma
SF-539 CNS = system: SF-539 CNS
MOLT-4 leukemia = system: MOLT-4 leukemia
NCI-H226 lung = system: NCI-H226 lung
LOX IMVI melanoma = system: LOX IMVI melanoma
SNB-19 CNS = system: SNB-19 CNS
HOP-92 NSCLC = system: HOP-92 NSCLC
SR leukemia = system: SR leukemia
SN12C renal = system: SN12C renal
SK-OV-3 ovarian = system: SK-OV-3 ovarian
IGROV1 ovarian = system: IGROV1 ovarian
SK-MEL-2 melanoma = system: SK-MEL-2 melanoma
NCI-H460 lung = system: NCI-H460 lung
T-47D breast = system: T-47D breast
U251 CNS = system: U251 CNS
MDA-MB-231 breast = system: MDA-MB-231 breast
RPMI-8226 leukemia = system: RPMI-8226 leukemia
BT-549 breast = system: BT-549 breast
ACHN renal = system: ACHN renal
786-0 renal = system: 786-0 renal
SK-MEL-28 melanoma = system: SK-MEL-28 melanoma
TK-10 renal = system: TK-10 renal
CCRF-CEM leukemia = system: CCRF-CEM leukemia
NCI/ADR-RES ovarian = system: NCI/ADR-RES ovarian
OVCAR-5 ovarian = system: OVCAR-5 ovarian
NCI-H23 lung = system: NCI-H23 lung
HOP-62 NSCLC = system: HOP-62 NSCLC
RXF 393 renal = system: RXF 393 renal
NCI-H522 lung = system: NCI-H522 lung
M14 melanoma = system: M14 melanoma
HCT-116 colon = system: HCT-116 colon
UO-31 renal = system: UO-31 renal
COLO 205 colon = system: COLO 205 colon
HCT-15 colon = system: HCT-15 colon
K-562 leukemia = system: K-562 leukemia
HCC-2998 colon = system: HCC-2998 colon
SF-268 CNS = system: SF-268 CNS
SK-MEL-5 melanoma = system: SK-MEL-5 melanoma
HL-60(TB) leukemia = system: HL-60(TB) leukemia
OVCAR-3 ovarian = system: OVCAR-3 ovarian
KM12 colon = system: KM12 colon

With `CC(C)(C)NC/C(=C\c1ccccc1)C(=O)c1ccccc1` the GI50 (CAKI-1 renal) was 1.88 µM, the TGI (CAKI-1 renal) was 6.36 µM and the GI50 (UACC-257 melanoma) was 2.12 µM. It also gave a TGI (UACC-257 melanoma) of 6.91 µM, a GI50 (A549 NSCLC) of 2.75 µM and a TGI (A549 NSCLC) of 8.23 µM. For the same compound, the GI50 (MDA-MB-435) was 2.51 µM, the TGI (MDA-MB-435) was 12.8 µM and the GI50 (EKVX NSCLC) was 3.29 µM. The TGI (EKVX NSCLC) was 13.6 µM, the GI50 (HT29 colon) was 0.9 µM and the TGI (HT29 colon) was 3.52 µM. It also gave a GI50 (A498 renal) of 1.8 µM, a TGI (A498 renal) of 3.64 µM and a GI50 (MCF7 breast) of 1.08 µM. The TGI (MCF7 breast) was 10.4 µM, the GI50 (OVCAR-8 ovarian) was 2.82 µM and the TGI (OVCAR-8 ovarian) was 10.1 µM. It also gave a GI50 (MALME-3M melanoma) of 2.04 µM, a TGI (MALME-3M melanoma) of 4.88 µM and a GI50 (DU-145 prostate) of 2.68 µM. It also gave a TGI (DU-145 prostate) of 9.63 µM, a GI50 (SW-620 colon) of 1.22 µM and a TGI (SW-620 colon) of 3.5 µM. It also gave a GI50 (HS 578T breast) of 6.11 µM, a TGI (HS 578T breast) of 60.7 µM and a GI50 (SNB-75 CNS) of 4.67 µM. It also gave a TGI (SNB-75 CNS) of 17.9 µM, a GI50 (SF-295 CNS) of 2.86 µM and a TGI (SF-295 CNS) of 11.4 µM. The GI50 (PC-3 prostate) was 3.44 µM, the TGI (PC-3 prostate) was 13 µM and the GI50 (OVCAR-4 ovarian) was 5.6 µM. The TGI (OVCAR-4 ovarian) was 19.6 µM, the GI50 (UACC-62 melanoma) was 1.51 µM and the TGI (UACC-62 melanoma) was 4.91 µM. For the same compound, the GI50 (SF-539 CNS) was 3.01 µM, the TGI (SF-539 CNS) was 7.2 µM and the GI50 (MOLT-4 leukemia) was 2.23 µM. The TGI (MOLT-4 leukemia) was 45.9 µM, the GI50 (NCI-H226 lung) was 2.2 µM and the TGI (NCI-H226 lung) was 11.2 µM. For the same compound, the GI50 (LOX IMVI melanoma) was 1.3 µM, the TGI (LOX IMVI melanoma) was 2.89 µM and the GI50 (SNB-19 CNS) was 4.27 µM. The TGI (SNB-19 CNS) was 18.4 µM, the GI50 (HOP-92 NSCLC) was 2.4 µM and the TGI (HOP-92 NSCLC) was 6.56 µM. The GI50 (SR leukemia) was 1.67 µM, the TGI (SR leukemia) was 8.68 µM and the GI50 (SN12C renal) was 1.95 µM. For the same compound, the TGI (SN12C renal) was 6.34 µM, the GI50 (SK-OV-3 ovarian) was 3.83 µM and the TGI (SK-OV-3 ovarian) was 13.8 µM. It also gave a GI50 (IGROV1 ovarian) of 2.78 µM, a TGI (IGROV1 ovarian) of 8.99 µM and a GI50 (SK-MEL-2 melanoma) of 2.01 µM. For the same compound, the TGI (SK-MEL-2 melanoma) was 5.02 µM, the GI50 (NCI-H460 lung) was 1.88 µM and the TGI (NCI-H460 lung) was 4.57 µM. It also gave a GI50 (T-47D breast) of 2.19 µM, a TGI (T-47D breast) of 8.98 µM and a GI50 (U251 CNS) of 2.3 µM. It also gave a TGI (U251 CNS) of 6.41 µM, a GI50 (MDA-MB-231 breast) of 2.72 µM and a TGI (MDA-MB-231 breast) of 8.12 µM. The GI50 (RPMI-8226 leukemia) was 2.14 µM, the TGI (RPMI-8226 leukemia) was 7.31 µM and the GI50 (BT-549 breast) was 2.03 µM. The TGI (BT-549 breast) was 4.39 µM, the GI50 (ACHN renal) was 1.45 µM and the TGI (ACHN renal) was 3.62 µM. It also gave a GI50 (786-0 renal) of 1.95 µM, a TGI (786-0 renal) of 4.01 µM and a GI50 (SK-MEL-28 melanoma) of 1.9 µM. It also gave a TGI (SK-MEL-28 melanoma) of 3.75 µM, a GI50 (TK-10 renal) of 0.94 µM and a TGI (TK-10 renal) of 2.28 µM. It also gave a GI50 (CCRF-CEM leukemia) of 0.936 µM, a TGI (CCRF-CEM leukemia) of 51.7 µM and a GI50 (NCI/ADR-RES ovarian) of 2.31 µM. The TGI (NCI/ADR-RES ovarian) was 10.8 µM, the GI50 (OVCAR-5 ovarian) was 2.33 µM and the TGI (OVCAR-5 ovarian) was 4.48 µM. It also gave a GI50 (NCI-H23 lung) of 1.77 µM, a TGI (NCI-H23 lung) of 5.02 µM and a GI50 (HOP-62 NSCLC) of 3.44 µM. The TGI (HOP-62 NSCLC) was 11.4 µM, the TGI (RXF 393 renal) was 2.37 µM and the GI50 (NCI-H522 lung) was 0.371 µM. For the same compound, the TGI (NCI-H522 lung) was 1.77 µM, the GI50 (M14 melanoma) was 1.8 µM and the TGI (M14 melanoma) was 4.2 µM. The GI50 (HCT-116 colon) was 1.18 µM, the TGI (HCT-116 colon) was 2.58 µM and the GI50 (UO-31 renal) was 1.41 µM. The TGI (UO-31 renal) was 2.88 µM, the GI50 (COLO 205 colon) was 1.34 µM and the TGI (COLO 205 colon) was 2.88 µM. For the same compound, the GI50 (HCT-15 colon) was 1.56 µM, the TGI (HCT-15 colon) was 7.16 µM and the GI50 (K-562 leukemia) was 2.24 µM. For the same compound, the TGI (K-562 leukemia) was 12.4 µM, the GI50 (HCC-2998 colon) was 1.74 µM and the TGI (HCC-2998 colon) was 3.35 µM. The GI50 (SF-268 CNS) was 3.8 µM, the TGI (SF-268 CNS) was 21 µM and the GI50 (SK-MEL-5 melanoma) was 1.53 µM. It also gave a TGI (SK-MEL-5 melanoma) of 2.91 µM, a GI50 (HL-60(TB) leukemia) of 2.59 µM and a TGI (HL-60(TB) leukemia) of 14.1 µM. The GI50 (OVCAR-3 ovarian) was 1.19 µM, the TGI (OVCAR-3 ovarian) was 3.19 µM and the GI50 (KM12 colon) was 3.01 µM. The TGI (KM12 colon) was 24.4 µM.
